Assay results published in US10221139B2, “Inhibitors of histone demethylases” (Gilead Sciences, Inc., priority 2012, dated 2019).

What was measured:
Type in all cases: cell-based
Conditions in all cases: 20 hours
JMJD2A (KDM4A) = target: T1, JMJD2A (KDM4A) (Homo sapiens, UniProt O75164); experiment: Immunofluorescence assay in U2OS cells transfected with pCMVHA JMJD2A (H3K9me3 mark)
T1 construct: Full length; host or cells: U2OS
T1 sequence (O75164 1-1064): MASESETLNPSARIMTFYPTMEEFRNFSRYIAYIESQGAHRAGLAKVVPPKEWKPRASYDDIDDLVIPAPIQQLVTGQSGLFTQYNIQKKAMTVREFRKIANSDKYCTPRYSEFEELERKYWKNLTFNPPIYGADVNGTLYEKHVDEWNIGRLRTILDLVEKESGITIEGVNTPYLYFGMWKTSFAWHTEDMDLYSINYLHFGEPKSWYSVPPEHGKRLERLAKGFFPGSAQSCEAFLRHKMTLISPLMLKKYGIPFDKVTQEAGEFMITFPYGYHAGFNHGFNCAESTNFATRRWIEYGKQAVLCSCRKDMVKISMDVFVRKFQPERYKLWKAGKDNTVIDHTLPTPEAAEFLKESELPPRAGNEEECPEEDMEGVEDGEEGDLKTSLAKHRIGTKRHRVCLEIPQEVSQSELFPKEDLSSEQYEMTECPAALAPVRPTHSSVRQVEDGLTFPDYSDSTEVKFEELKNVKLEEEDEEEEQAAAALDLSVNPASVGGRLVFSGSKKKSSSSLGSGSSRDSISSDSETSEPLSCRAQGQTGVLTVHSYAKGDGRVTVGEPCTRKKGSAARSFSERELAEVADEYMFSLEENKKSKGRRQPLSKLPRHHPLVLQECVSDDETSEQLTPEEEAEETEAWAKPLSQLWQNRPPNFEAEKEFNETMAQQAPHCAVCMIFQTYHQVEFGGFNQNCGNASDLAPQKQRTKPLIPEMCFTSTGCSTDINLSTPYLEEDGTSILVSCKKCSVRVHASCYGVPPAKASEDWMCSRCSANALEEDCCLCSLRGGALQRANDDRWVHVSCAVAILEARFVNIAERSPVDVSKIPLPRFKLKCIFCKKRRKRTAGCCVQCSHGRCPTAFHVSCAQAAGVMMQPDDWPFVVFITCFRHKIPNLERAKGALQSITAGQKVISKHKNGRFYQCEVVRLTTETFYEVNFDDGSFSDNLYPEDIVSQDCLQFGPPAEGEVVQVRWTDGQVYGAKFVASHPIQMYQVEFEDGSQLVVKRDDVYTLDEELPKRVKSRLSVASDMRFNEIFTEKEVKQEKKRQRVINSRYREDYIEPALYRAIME
Procedure: U2OS cells were seeded 24 hours before transfection. Transfection was performed with Fugene HD transfection reagent as recommended by the manufacturer. 6 hours after transfection, the cells were harvested and seeded into multi well plates into media containing compound. The media used was DMEM containing 5% FBS and pen/strep. 20 hours after incubation of cells with compounds, the cells were washed once in PBS, harvested by fixation with formaldehyde 4% aqueous solution, and washed 2 times in PBS. Subsequently, the cells were permeabilized in PBS with 0.2% Triton X-100 for 10 min at room temperature. Blocking was performed in PBS with 0.2% Triton X-100 and 5% FBS for 45 min at room temperature. The cells were incubated with primary antibodies diluted 1 μg/ml in blocking solution over night at 4° C. The primary antibodies used in the assays were HA.11 (Covance, MMS-101P) and the antibody detecting the mark specified in the Table 6 below. After incubation with primary antibodies, the cells were washed 3 times with PBS, incubated with secondary antibodies diluted 1:1000 (Alexa fluor 594 goat anti rabbit IgG, Invitrogen, A11012; Alexa flour 488 donkey anti mouse IgG, Invitrogen, A21202) and Hoechst, 20 μg/ml (Sigma, 33342) in blocking solution, and washed again 3 times with PBS. Finally, PBS was added and high throughput imaging and analysis were performed by an IN Cell Analyzer 1000 (GE Healthcare). The robot software analyzed individual cells and divided these into HA^+ (transfected cells) and HA^− (non-transfected cells). The IC50 values in Table 7 below were based on an average measure of the staining of the mark specified in the Table 6 below in the transfected cells.

GASC1 (KDM4C) = target: T2, GASC1 (KDM4C) (Homo sapiens, UniProt Q9H3R0); experiment: Immunofluorescence assay in U2OS cells transfected with pCMVHA JMJD2C (H3K9me3 mark)
T2 construct: Full length; host or cells: U2OS
T2 sequence (Q9H3R0 1-1056): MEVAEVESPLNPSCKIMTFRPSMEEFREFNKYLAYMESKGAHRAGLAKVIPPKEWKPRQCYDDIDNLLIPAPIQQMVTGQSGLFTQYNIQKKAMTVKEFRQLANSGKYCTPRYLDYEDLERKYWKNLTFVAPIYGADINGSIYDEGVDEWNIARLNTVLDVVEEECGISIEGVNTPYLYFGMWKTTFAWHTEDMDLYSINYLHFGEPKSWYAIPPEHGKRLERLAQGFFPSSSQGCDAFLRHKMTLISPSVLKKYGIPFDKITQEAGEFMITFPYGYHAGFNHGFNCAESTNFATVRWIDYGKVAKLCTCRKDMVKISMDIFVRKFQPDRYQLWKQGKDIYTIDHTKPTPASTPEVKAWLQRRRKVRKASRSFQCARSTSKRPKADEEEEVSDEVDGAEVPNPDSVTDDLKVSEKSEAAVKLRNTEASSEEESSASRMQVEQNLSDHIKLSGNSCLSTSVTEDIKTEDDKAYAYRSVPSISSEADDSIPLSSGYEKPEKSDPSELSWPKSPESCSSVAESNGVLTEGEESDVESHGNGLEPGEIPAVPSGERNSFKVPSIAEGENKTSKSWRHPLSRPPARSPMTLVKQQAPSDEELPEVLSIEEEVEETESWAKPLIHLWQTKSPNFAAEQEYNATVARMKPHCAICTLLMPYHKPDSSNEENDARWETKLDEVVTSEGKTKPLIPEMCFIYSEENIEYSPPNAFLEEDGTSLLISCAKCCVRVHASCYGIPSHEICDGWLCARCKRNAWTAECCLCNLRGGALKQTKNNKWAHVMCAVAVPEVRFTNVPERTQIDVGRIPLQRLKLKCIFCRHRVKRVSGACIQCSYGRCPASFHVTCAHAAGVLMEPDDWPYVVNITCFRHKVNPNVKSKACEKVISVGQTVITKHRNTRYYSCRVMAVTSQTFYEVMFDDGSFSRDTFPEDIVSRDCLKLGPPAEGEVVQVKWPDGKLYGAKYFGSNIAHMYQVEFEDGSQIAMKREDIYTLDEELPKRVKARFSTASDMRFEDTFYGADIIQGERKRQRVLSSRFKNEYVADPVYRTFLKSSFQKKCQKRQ
Summary of the method: (§1)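 U2OS cells transiently expressing HA-tagged demethylase, exposed to compound 6 h post-transfection for 20 h in DMEM/5% FBS. Cells fixed, then immunostained for HA and the histone methyl mark and imaged by high-content analysis. IC50 from mean mark staining in HA-positive transfected cells.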

PLU1 (KDM5B) = target: T3, PLU1 (KDM5B) (Homo sapiens, UniProt Q9UGL1); experiment: Immunofluorescence assay in U2OS cells transfected with pCMVHA PLU1 (H3K4me2 mark)
T3 construct: (1-752); host or cells: U2OS
T3 sequence (Q9UGL1 1-752): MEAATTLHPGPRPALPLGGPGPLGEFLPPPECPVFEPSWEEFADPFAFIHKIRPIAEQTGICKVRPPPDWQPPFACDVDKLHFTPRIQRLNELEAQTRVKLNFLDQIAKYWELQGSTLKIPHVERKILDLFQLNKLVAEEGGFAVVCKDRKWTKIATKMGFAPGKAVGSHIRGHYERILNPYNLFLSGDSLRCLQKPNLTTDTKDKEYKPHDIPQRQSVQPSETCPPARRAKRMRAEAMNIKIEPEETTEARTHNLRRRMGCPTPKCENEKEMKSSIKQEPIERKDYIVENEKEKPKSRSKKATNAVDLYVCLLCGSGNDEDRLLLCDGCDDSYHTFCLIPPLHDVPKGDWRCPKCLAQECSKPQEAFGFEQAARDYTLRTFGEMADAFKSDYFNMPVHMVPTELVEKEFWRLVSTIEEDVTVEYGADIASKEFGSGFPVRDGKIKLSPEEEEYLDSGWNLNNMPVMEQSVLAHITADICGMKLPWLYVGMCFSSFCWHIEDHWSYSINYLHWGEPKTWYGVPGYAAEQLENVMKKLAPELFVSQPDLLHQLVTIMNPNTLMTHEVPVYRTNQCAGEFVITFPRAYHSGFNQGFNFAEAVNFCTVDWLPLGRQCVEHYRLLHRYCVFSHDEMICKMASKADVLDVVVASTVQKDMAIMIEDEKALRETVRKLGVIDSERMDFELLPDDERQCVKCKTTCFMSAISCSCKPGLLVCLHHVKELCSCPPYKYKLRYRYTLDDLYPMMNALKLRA
Summary of the method: as §1

Row | IC50 (JMJD2A (KDM4A)) [µM] | IC50 (GASC1 (KDM4C)) [µM] | IC50 (PLU1 (KDM5B)) [µM] | Structure (SMILES)
1 | 1 to 50 | – | – | CSCCNCc1cc(C(=O)O)ccn1 [drawing 304, 2-({[2-(methylsulfanyl)ethyl]amino}methyl)pyridine-4-carboxylic acid]
2 | 1 to 50 | > 50 | 1 to 50 | CCN(CCN(C)C)C(=O)CNCc1cc(C(=O)O)ccn1 [drawing 328, 2-{[({[2-(dimethylamino)ethyl](ethyl)carbamoyl}methyl)amino]methyl}pyridine-4-carboxylic acid]
3 | < 1 | – | – | CCOC(=O)N(C)c1ccc(COC(=O)c2ccnc(CNCCCCN(CC)CC)c2)cc1 [drawing 333, {4-[(ethoxycarbonyl)(methyl)amino]phenyl}methyl 2-({[4-(diethylamino)butyl]amino}methyl)pyridine-4-carboxylate]
4 | 1 to 50 | – | – | CCCCCCCCCCCCCCCC(=O)OCC(COC(=O)CCCCCCCCCCCCCCC)OC(=O)c1ccnc(CNCC(=O)N(CC)CCN(C)C)c1 [drawing 334, 2-(2-{[({[2-(dimethylamino)ethyl](ethyl)carbamoyl}methyl)amino]methyl}pyridine-4-carbonyloxy)-3-(hexadecanoyloxy)propyl hexadecanoate]
